Type in all cases: cell-based
In assay [1] the test system is Candida albicans (NCPF3179). The assay can be described thus: MIC, Candida albicans. The following applies: Candida albicans, NCPF3179, read-out: Minimum inhibitory concentrations (MICs), C. albicans. The procedure: (§1) The effects of compounds of the invention in relation to inhibiting the growth of various microorganisms was determined using methods known to those skilled in the art, for example in vitro methods as described in J. Med. Chem. 47, 2133-2156 (2004) and in vivo methods as described in J. Med. Microbiol. 46, 208-213 (1997), the disclosures of which documents are hereby incorporated by reference. In particular, minimum inhibitory concentrations (MICs) against microorganisms (e.g. S. Aureus, Streptococcus faecalis, Aspergillus niger, Candida albicans or Mycobacterium fortuitum) for compounds of the invention may be measured using procedures such as those described in A. J. Drummond and […] development of microbiological methods for phytochemical screening” Recent Res. Devel. […] The test wells on each 96 well microtitre plate were initially inoculated with culture medium (100 μL) using Mueller-Hinton Broth for antibacterial assays and Sabouraud Broth for antifungal assays. A solution of each test sample (100 μL) was added to one row of each plate and a series of doubling dilutions made for successive rows. Incubation was at 37° C. for antibacterial assay and 25° C. for antifungal assay. […] From the observed pattern of colour, the MIC was determined. All tests included sterility and growth controls.

Assay [2] deals with Mycobacter fortuitum (NCTC 10394). The assay is described as follows: MIC, Mycobacter fortuitum. Particulars: Mycolicibacterium fortuitum, NCTC10394, read-out: Minimum inhibitory concentrations (MICs), M. fortuitum. The protocol: as §1
Assay [3] deals with Staphylococcus aureus Strain 1 (BSAC04(1)) (Clinical isolate from Glasgow Royal Infirmary). The assay can be described thus: MIC, Staphylococcus aureus Strain 1. The following applies: Staphylococcus aureus, read-out: Minimum inhibitory concentrations (MICs), S aureus 1. The procedure:
The effects of compounds of the invention in relation to inhibiting the growth of various microorganisms was determined using methods known to those skilled in the art, for example in vitro methods as described in J. Med. Chem. 47, 2133-2156 (2004) and in vivo methods as described in J. Med. Microbiol. 46, 208-213 (1997), the disclosures of which documents are hereby incorporated by reference.
In particular, minimum inhibitory concentrations (MICs) against microorganisms (e.g. S. Aureus, Streptococcus faecalis, Aspergillus niger, Candida albicans or Mycobacterium fortuitum) for compounds of the invention may be measured using procedures such as those described in A. J. Drummond and R. D. Waigh “The development of microbiological methods for phytochemical screening” Recent Res. Devel. Phytochem. 4, 143-152 (2000), the disclosures of which document are hereby incorporated by reference.
Sample dilutions were typically prepared by dissolving the test sample (2 mg) in sterile water (10 mL) to provide a working concentration of 200 μg/ml. The test wells on each 96 well microtitre plate were initially inoculated with culture medium (100 μL) using Mueller-Hinton Broth for antibacterial assays and Sabouraud Broth for antifungal assays. A solution of each test sample (100 μL) was added to one row of each plate and a series of doubling dilutions made for successive rows. Incubation was at 37° C. for antibacterial assay and 25° C. for antifungal assay. […] From the observed pattern of colour, the MIC was determined. All tests included sterility and growth controls.

The subject of assay [4] is Aspergillus niger (IMI 1745). The assay is described as follows: MIC, Aspergillus niger. The following applies: Aspergillus niger, read-out: Minimum inhibitory concentrations (MICs), A. niger. The procedure: as §1
Assay [5] has as its system Staphylococcus aureus Strain 2 (NCTC 6571). The assay can be described thus: MIC, Staphylococcus aureus Strain 2. Particulars: Staphylococcus aureus, NCTC6571, read-out: Minimum inhibitory concentrations (MICs), S. aureus 2. The protocol: as §1
Assay [6] relates to Streptococcus faecalis (NCTC 775). The assay can be described thus: MIC, Streptococcus faecalis. The following applies: Enterococcus faecalis, NCTC775, read-out: Minimum inhibitory concentrations (MICs), St. faecalis. The procedure:
as §1

Setting [7] is: value in parentheses, na = not active.

Like-named read-outs stand apart in the source and are kept apart here.

On to `CC(C)CCc1sc(NC(=O)c2cc(NC(=O)c3ccc(/C=C/c4cc5ccccc5nc4On4nnc5ccccc54)cc3)cn2C)nc1C(=O)NCCN1CCOCC1` [Example 18, 2-[({4-[(4-{(E)-2-[2-(1H-1,2,3-Benzotriazol-1-yloxy)-3-quinolinyl]ethenyl}-benzoyl)amino]-1-methyl-1H-pyrrol-2-yl}carbonyl)amino]-5-isopentyl-N-[2-(4-morpholinyl)ethyl]-1,3-thiazole-4-carboxamide], for which the MIC in assay [1] (setting [7]) is 100 µg/mL; in assay [1] (value outside parentheses) it was 169 µM; in assay [2] (setting [7]), 100 µg/mL; in assay [2] (value outside parentheses), 169 µM.

On to `COc1cccc(/C=C/c2ccc(C(=O)Nc3cc(C(=O)Nc4cc(C(=O)NCCCN(C)C)n(C)c4)n(C)c3)cc2)c1` [Example 4, N-[5-({[3-(Dimethylamino)propyl]amino}carbonyl)-1-methyl-1H-pyrrol-3-yl]-4-({4-[(E)-2-(3-methoxyphenyl)ethenyl]benzoyl}amino)-1-methyl-1H-pyrrole-2-carboxamide], for which the MIC is 6.25 µg/mL in assay [3] (setting [7]); 8.9 µM in assay [3] (value outside parentheses); 50 µg/mL in assay [4] (setting [7]); 72 µM in assay [4] (value outside parentheses); 100 µg/mL in assay [1] (setting [7]); 143 µM in assay [1] (value outside parentheses). Besides, the MIC is 12.5 µg/mL in assay [5] (setting [7]) and 17.9 µM in assay [5] (value outside parentheses).

Take `CC(C)CCc1sc(NC(=O)c2cc(NC(=O)c3ccc(/C=C/c4cnc5ccccc5c4)cc3)cn2C)nc1C(=O)NCCN1CCOCC1` [Example 16, 5-Isopentyl-2-({[1-methyl-4-({4-[(E)-2-(3-quinolinyl)ethenyl]benzoyl}amino)-1H-pyrrol-2-yl]carbonyl}amino)-N-[2-(4-morpholinyl)ethyl]-1,3-thiazole-4-carboxamide]: the MIC in assay [4] (setting [7]) came to 100 µg/mL; in assay [4] (value outside parentheses), 122 µM; in assay [1] (setting [7]) it was 50 µg/mL; in assay [1] (value outside parentheses), 61 µM; in assay [2] (setting [7]), 100 µg/mL; in assay [2] (value outside parentheses), 122 µM.

`Cn1cc(NC(=O)c2cc(NC(=O)c3cc(/C=C/c4cnc5ccccc5c4)cn3C)cn2C)cc1C(=O)NCCN1CCOCC1` [Example 10, 1-Methyl-N-[1-methyl-5-({[1-methyl-5-({[2-(4-morpholinyl)ethyl]amino}-carbonyl)-1H-pyrrol-3-yl]amino}carbonyl)-1H-pyrrol-3-yl]-4-[(E)-2-(3-quinolinyl)ethenyl]-1H-pyrrole-2-carboxamide]: the MIC is 4 µg/mL in assay [3] (setting [7]); 5.3 µM in assay [3] (value outside parentheses); 12.5 µg/mL in assay [6] (setting [7]); 15 µM in assay [6] (value outside parentheses); 100 µg/mL in assay [1] (setting [7]); 116 µM in assay [1] (value outside parentheses). For the same compound, the values for the MIC in assay [2] (setting [7]) and in assay [2] (value outside parentheses) were 100 µg/mL and 116 µM, respectively.

Consider `COc1ccc(/C=C/c2ccc3cc(C(=O)Nc4cc(C(=O)Nc5cc(C(=O)NCCN6CCOCC6)n(C)c5)n(C)c4)ccc3n2)cc1` [Example 23, 2-[(E)-2-(4-Methoxyphenyl)ethenyl]-N-[1-methyl-5-({[1-methyl-5-({[2-(4-morpholinyl)ethyl]amino}carbonyl)-1H-pyrrol-3-yl]amino}carbonyl)-1H-pyrrol-3-yl]-6-quinolinecarboxamide], for which the MIC in assay [3] (setting [7]) came out at 4 µg/mL; in assay [3] (value outside parentheses) it was 5.2 µM; in assay [4] (setting [7]), 50 µg/mL; in assay [4] (value outside parentheses) it was 64 µM; in assay [6] (setting [7]), 25 µg/mL; in assay [6] (value outside parentheses), 32 µM. Further, the MIC in assay [1] (setting [7]) was 100 µg/mL; in assay [1] (value outside parentheses), 129 µM; in assay [2] (setting [7]), 100 µg/mL; in assay [2] (value outside parentheses), 129 µM.

Regarding `CSc1ccc(/C=C/c2ccc3cc(C(=O)Nc4cc(C(=O)Nc5cc(C(=O)NCCN6CCOCC6)n(C)c5)n(C)c4)ccc3n2)cc1` [Example 24, N-[1-Methyl-5-({[1-methyl-5-({[2-(4-morpholinyl)ethyl]amino}carbonyl)-1H-pyrrol-3-yl]amino}carbonyl)-1H-pyrrol-3-yl]-2-{(E)-2-[4-(methylsulfanyl)-phenyl]ethenyl}-6-quinolinecarboxamide], the MIC was 4 µg/mL in assay [3] (setting [7]); 5.1 µM in assay [3] (value outside parentheses); 100 µg/mL in assay [4] (setting [7]); 126 µM in assay [4] (value outside parentheses); 100 µg/mL in assay [6] (setting [7]); 26 µM in assay [6] (value outside parentheses). Further, the MIC in assay [1] (setting [7]) is 100 µg/mL; in assay [1] (value outside parentheses) it was 126 µM; in assay [5] (setting [7]), 100 µg/mL; in assay [5] (value outside parentheses), 126 µM.

Take `CSc1ccc(/C=C/c2ccc(C(=O)Nc3cc(C(=O)Nc4cc(C(=O)NCCN5CCOCC5)n(C)c4)n(C)c3)cn2)cc1` [Example 25, N-[1-methyl-5-({[1-methyl-5-({[2-(4-morpholinyl)ethyl]amino}carbonyl)-1H-pyrrol-3-yl]amino}carbonyl)-1H-pyrrol-3-yl]-6-{(E)-2-[4-(methylsulfanyl)-phenyl]ethenyl}nicotinamide]: the MIC in assay [3] (setting [7]) stood at 0.5 µg/mL; in assay [3] (value outside parentheses), 0.67 µM; in assay [4] (setting [7]), 100 µg/mL; in assay [4] (value outside parentheses), 135 µM; in assay [6] (setting [7]), 25 µg/mL; in assay [6] (value outside parentheses), 34 µM. For the same compound, the MIC worked out at 50 µg/mL in assay [1] (setting [7]); 67 µM in assay [1] (value outside parentheses); 100 µg/mL in assay [2] (setting [7]); 135 µM in assay [2] (value outside parentheses); 50 µg/mL in assay [5] (setting [7]); 67 µM in assay [5] (value outside parentheses).

Turning to `CC(C)CCc1sc(NC(=O)c2cc(NC(=O)c3ccc(/C=C/c4cc5ccccc5nc4Cl)cc3)cn2C)nc1C(=O)NCCN1CCOCC1` [Example 17, 2-({[4-({4-[(E)-2-(2-Chloro-3-quinolinyl)ethenyl]benzoyl}amino)-1-methyl-1H-pyrrol-2-yl]carbonyl}amino)-5-isopentyl-N-[2-(4-morpholinyl)ethyl]-1,3-thiazole-4-carboxamide], the MIC in assay [1] (setting [7]) stood at 100 µg/mL; in assay [1] (value outside parentheses), 117 µM; in assay [2] (setting [7]), 100 µg/mL; in assay [2] (value outside parentheses), 117 µM.

These data come from US8012967B2, “Minor groove binders” (University of Strathclyde, priority 2006, dated 2011).
